In patent publication US10479795B2 (Incyte Corporation, priority 2016, dated 2019):
pIC50: −log10 of the molar value. Structures can show the parent of a compound that is named as a salt.

Columns and labels:
[1] = biological target: PI3Kδ (p110δ/p85α) Recombinant Human Protein (Homo sapiens (Human), UniProt O00329); assay: PI3Kδ Scintillation Proximity Assay; format: biochemical
In short: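 Assay conditions: 2 μM ATP (radiolabelled), 20 μM PIP2, 3.4 nM PI3Kδ, 20 mM MOPS pH 6.7 with 10 mM MgCl2, 5 mM DTT, 0.03% CHAPS, 2 h at room temperature. Signal from bead-captured 33P product; IC50 versus solvent control.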

[2] = biological target: PI3Kγ (p110γ) Recombinant Human Protein (Homo sapiens (Human), UniProt P48736); assay: PI3K-γ Scintillation Proximity Assay; format: biochemical; conditions: read-out: PI3Kγ IC50
In short: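 Radiometric SPA readout: […] bound to WGA beads after overnight shaking, IC50 derived from % activity of DMSO control. Reaction used human p110γ, 2 μM ATP, 20 μM PIP2, pH 6.7 MOPS buffer with MgCl2, DTT, CHAPS, 2% DMSO, room temperature.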

PI3Kγ (p110γ) Recombinant Human Protein, sequence (P48736 whole entry): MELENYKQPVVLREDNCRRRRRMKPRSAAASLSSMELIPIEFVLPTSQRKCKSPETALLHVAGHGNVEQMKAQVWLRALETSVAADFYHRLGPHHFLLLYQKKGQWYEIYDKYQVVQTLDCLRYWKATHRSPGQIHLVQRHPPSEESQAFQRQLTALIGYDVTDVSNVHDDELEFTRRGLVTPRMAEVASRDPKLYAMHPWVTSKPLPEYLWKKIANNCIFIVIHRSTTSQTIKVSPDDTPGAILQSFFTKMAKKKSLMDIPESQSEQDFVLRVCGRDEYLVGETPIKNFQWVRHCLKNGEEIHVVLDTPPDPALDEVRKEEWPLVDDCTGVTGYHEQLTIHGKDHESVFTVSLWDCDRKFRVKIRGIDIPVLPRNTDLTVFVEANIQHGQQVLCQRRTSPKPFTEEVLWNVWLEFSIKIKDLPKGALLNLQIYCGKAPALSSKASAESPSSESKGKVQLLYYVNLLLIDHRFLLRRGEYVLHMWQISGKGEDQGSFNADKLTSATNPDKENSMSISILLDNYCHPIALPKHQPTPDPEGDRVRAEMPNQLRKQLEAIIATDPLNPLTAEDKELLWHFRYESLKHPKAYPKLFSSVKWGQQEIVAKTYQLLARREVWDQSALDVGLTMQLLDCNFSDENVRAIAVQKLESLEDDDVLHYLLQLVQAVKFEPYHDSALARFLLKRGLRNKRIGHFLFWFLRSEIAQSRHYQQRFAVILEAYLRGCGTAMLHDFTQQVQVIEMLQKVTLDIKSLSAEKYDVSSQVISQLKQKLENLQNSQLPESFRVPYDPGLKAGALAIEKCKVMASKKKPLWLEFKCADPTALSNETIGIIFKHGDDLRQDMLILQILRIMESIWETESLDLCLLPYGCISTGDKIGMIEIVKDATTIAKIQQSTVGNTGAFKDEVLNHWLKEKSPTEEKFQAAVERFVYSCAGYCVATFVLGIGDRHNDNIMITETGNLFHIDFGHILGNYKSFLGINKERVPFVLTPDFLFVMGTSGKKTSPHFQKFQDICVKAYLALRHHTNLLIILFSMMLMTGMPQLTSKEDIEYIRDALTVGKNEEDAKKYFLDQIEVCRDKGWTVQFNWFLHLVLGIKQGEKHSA
PI3Kδ (p110δ/p85α) Recombinant Human Protein, sequence (O00329 whole entry): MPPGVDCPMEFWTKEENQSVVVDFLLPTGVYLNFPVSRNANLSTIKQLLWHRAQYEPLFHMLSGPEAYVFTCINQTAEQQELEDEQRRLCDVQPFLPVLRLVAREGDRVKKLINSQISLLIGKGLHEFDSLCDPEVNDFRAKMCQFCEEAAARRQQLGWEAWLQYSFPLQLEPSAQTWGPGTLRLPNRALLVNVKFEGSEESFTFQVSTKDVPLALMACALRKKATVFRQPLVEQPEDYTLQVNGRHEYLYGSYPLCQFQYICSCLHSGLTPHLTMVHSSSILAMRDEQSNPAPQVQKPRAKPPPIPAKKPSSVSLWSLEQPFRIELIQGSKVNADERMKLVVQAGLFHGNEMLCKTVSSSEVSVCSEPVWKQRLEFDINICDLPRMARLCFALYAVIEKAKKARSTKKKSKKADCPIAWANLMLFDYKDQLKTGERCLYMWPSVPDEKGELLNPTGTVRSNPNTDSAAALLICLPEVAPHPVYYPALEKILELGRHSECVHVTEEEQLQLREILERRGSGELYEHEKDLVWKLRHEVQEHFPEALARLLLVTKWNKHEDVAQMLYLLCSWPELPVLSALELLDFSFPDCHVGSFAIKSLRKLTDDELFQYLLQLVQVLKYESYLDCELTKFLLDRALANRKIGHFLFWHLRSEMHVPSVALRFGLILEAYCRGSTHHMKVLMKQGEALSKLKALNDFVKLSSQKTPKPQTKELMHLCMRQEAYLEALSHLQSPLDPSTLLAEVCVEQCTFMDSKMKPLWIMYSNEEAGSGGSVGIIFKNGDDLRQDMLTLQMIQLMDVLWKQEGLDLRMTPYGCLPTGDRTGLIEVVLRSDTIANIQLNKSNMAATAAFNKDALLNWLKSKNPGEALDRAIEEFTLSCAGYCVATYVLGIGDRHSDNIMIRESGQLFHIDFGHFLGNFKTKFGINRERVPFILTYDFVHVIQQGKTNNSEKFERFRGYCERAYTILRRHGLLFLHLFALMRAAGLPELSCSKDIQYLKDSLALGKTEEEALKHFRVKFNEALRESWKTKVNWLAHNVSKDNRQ
PI3Kδ (p110δ/p85α) Recombinant Human Protein, sequence (P27986 whole entry partner): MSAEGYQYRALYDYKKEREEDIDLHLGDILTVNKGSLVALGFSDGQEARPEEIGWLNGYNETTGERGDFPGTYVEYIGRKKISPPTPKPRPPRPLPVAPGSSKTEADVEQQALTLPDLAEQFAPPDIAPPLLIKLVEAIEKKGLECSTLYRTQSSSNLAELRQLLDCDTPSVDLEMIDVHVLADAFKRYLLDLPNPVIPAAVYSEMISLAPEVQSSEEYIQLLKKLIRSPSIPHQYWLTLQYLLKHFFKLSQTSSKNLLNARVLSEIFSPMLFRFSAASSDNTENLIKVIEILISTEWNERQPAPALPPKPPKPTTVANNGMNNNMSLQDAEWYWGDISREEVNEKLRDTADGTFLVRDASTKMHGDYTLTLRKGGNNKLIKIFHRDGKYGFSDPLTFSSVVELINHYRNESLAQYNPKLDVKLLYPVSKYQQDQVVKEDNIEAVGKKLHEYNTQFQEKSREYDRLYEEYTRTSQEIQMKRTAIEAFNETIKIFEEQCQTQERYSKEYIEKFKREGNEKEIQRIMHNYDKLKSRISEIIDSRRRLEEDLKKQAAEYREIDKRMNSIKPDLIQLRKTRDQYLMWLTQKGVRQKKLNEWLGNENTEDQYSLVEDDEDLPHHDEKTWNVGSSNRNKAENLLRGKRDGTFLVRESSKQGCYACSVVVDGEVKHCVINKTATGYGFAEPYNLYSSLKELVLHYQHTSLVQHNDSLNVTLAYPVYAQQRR

SMILES | pIC50 [1] | pIC50 [2]
Nc1ncnn2c(-c3ccc(F)c(S(=O)(=O)NC45CCC(CO)(C4)C5)c3)cnc12 [Example 366, 5-(4-Aminoimidazo[1,2-f][1,2,4]triazin-7-yl)-2-fluoro-N-(4-(hydroxymethyl)bicyclo[2.1.1]hexan-1-yl)benzenesulfonamide trifluoroacetate salt] | 6.30 to 7.00 | > 7.00
Nc1ncnn2c(-c3cccc(S(=O)(=O)NC45CCC(CO)(C4)C5)c3)cnc12 [Example 368, 3-(4-Aminoimidazo[1,2-f][1,2,4]triazin-7-yl)-N-(4-(hydroxymethyl)bicyclo[2.1.1]hexan-1-yl)benzenesulfonamide trifluoroacetate salt] | 6.30 to 7.00 | > 7.00
Cc1ccc(S(=O)(=O)N[C@H]2C[C@H](C#N)C2)cc1-c1cnc2c(N)ncnn12 [Example 370, 3-(4-Aminoimidazo[2,1-f][1,2,4]triazin-7-yl)-N-((1r,3r)-3-cyanocyclobutyl)-4-(methyl-d3)benzenesulfonamide trifluoroacetate salt] | 6.30 to 7.00 | > 7.00
N#CC12CCC(NS(=O)(=O)c3ccc(OC(F)(F)F)c(-c4cnc5c(N)ncnn45)c3)(C1)C2 [Example 373, 3-(4-Aminoimidazo[1,2-f][1,2,4]triazin-7-yl)-N-(4-cyanobicyclo[2.1.1]hexan-1-yl)-4-(trifluoromethoxy)benzenesulfonamide trifluoroacetate salt] | 5.70 to 6.30 | 5.70 to 6.30
N#Cc1ccc(S(=O)(=O)NC23CCC(CO)(C2)C3)cc1-c1cnc2c(N)nc(C(F)(F)F)cn12 [Example 401, 3-(8-Amino-6-(trifluoromethyl)imidazo[1,2-a]pyrazin-3-yl)-4-cyano-N-(4-(hydroxymethyl)bicyclo[2.1.1]hexan-1-yl)benzenesulfonamide trifluoroacetate salt] | < 5.70 | > 7.00
CC(C)(O)CNS(=O)(=O)c1ccc(C(F)(F)F)c(-c2cnc3c(N)nc(C(F)(F)F)cn23)c1 [Example 407, 3-(8-amino-6-(trifluoromethyl)imidazo[1,2-a]pyrazin-3-yl)-N-(2-hydroxy-2-methylpropyl)-4-(trifluoromethyl)benzenesulfonamide] | < 5.70 | 5.70 to 6.30
COCCN1CCCC(NC(=O)c2cn3c(-c4cc(S(C)(=O)=O)ccc4C)cnc3c(N)n2)C1 (stereo not drawn) [Example 458, 8-Amino-N-(1-(2-methoxyethyl)piperidin-3-yl)-3-(2-methyl-5-(methylsulfonyl)phenyl)imidazo[1,2-a]pyrazine-6-carboxamide trifluoroacetate salt] | < 5.70 | 5.70 to 6.30
Cc1ccc(S(C)(=O)=O)cc1-c1cnc2c(N)nc(C(=O)NC3CCCN(CC#N)C3)cn12 (stereo not drawn) [Example 459, 8-Amino-N-(1-(cyanomethyl)piperidin-3-yl)-3-(2-methyl-5-(methylsulfonyl)phenyl)imidazo[1,2-a]pyrazine-6-carboxamide trifluoroacetate salt] | < 5.70 | 6.30 to 7.00
Cc1ccc(S(=O)(=O)C[C@H]2CC[C@@H](O)CC2)cc1-c1cnc2c(N)ncnn12 [Example 498, cis-4-(((3-(4-Aminoimidazo[2,1-f][1,2,4]triazin-7-yl)-4-methylphenyl)sulfonyl)methyl)cyclohexan-1-ol] | 5.70 to 6.30 | > 7.00
Cc1ccc(S(=O)(=O)CC2CC2)cc1-c1cnc2c(N)ncnn12 [Example 499, 7-(5-((Cyclopropylmethyl)sulfonyl)-2-methylphenyl)imidazo[2,1-f][1,2,4]triazin-4-amine] | 5.70 to 6.30 | 6.30 to 7.00
COC[C@H]1CCCN1C(=O)C1CCCN(S(=O)(=O)c2ccc(C)c(-c3cnc4c(N)nc(C(F)(F)F)cn34)c2)C1 (stereo partly drawn) [Example 511, (1-((3-(8-Amino-6-(trifluoromethyl)imidazo[1,2-a]pyrazin-3-yl)-4-methylphenyl)sulfonyl)piperidin-3-yl)((R)-2-(methoxymethyl)pyrrolidin-1-yl)methanone] | < 5.70 | 5.70 to 6.30

Results, then the molecule that gave them:

pIC50 [1] | pIC50 [2] | SMILES
6.30 to 7.00 | > 7.00 | Cc1ccc(-c2cnc3c(N)ncnn23)cc1S(=O)(=O)NC12CCC(C#N)(C1)C2 [Example 369, 5-(4-Aminoimidazo[1,2-f][1,2,4]triazin-7-yl)-N-(4-cyanobicyclo[2.1.1]hexan-1-yl)-2-methylbenzenesulfonamide trifluoroacetate salt]
5.70 to 6.30 | > 7.00 | COc1ccc(S(=O)(=O)NC23CCC(C#N)(C2)C3)cc1-c1cnc2c(N)ncnn12 [Example 372, 3-(4-Aminoimidazo[1,2-f][1,2,4]triazin-7-yl)-N-(4-cyanobicyclo[2.1.1]hexan-1-yl)-4-methoxybenzenesulfonamide trifluoroacetate salt]
5.70 to 6.30 | 6.30 to 7.00 | Cc1cn2c(-c3ccc(F)c(S(=O)(=O)NC45CC(C#N)(C4)C5)c3)cnc2c(N)n1 [Example 382, 5-(8-Amino-6-methylimidazo[1,2-a]pyrazin-3-yl)-N-(3-cyanobicyclo[1.1.1]pentan-1-yl)-2-fluorobenzenesulfonamide trifluoroacetate salt]
6.30 to 7.00 | < 5.70 | CCN(CC)CCCCNC(=O)c1cn2c(-c3cc(S(C)(=O)=O)ccc3C)cnc2c(N)n1 [Example 452, 8-Amino-N-(4-(diethylamino)butyl)-3-(2-methyl-5-(methylsulfonyl)phenyl)imidazo[1,2-a]pyrazine-6-carboxamide trifluoroacetate salt]
6.30 to 7.00 | 6.30 to 7.00 | Cc1ccc(S(C)(=O)=O)cc1-c1cnc2c(N)nc(C(=O)NCCc3cnn(C)c3)cn12 [Example 453, 8-amino-N-(2-(1-methyl-1H-pyrazol-4-yl)ethyl)-3-(2-methyl-5-(methylsulfonyl)phenyl)imidazo[1,2-a]pyrazine-6-carboxamide trifluoroacetate salt]
5.70 to 6.30 | 6.30 to 7.00 | Cc1ccc(S(C)(=O)=O)cc1-c1cnc2c(N)nc(C(=O)Nc3cc(-c4ccco4)[nH]n3)cn12 [Example 454, 8-amino-N-(5-(furan-2-yl)-1H-pyrazol-3-yl)-3-(2-methyl-5-(methylsulfonyl)phenyl)imidazo[1,2-a]pyrazine-6-carboxamide trifluoroacetate salt]
5.70 to 6.30 | 5.70 to 6.30 | Cc1ccc(S(C)(=O)=O)cc1-c1cnc2c(N)nc(C(=O)Nc3ccc(N4CCN(C)CC4)cn3)cn12 [Example 455, 8-amino-3-(2-methyl-5-(methylsulfonyl)phenyl)-N-(5-(4-methylpiperazin-1-yl)pyridin-2-yl)imidazo[1,2-a]pyrazine-6-carboxamide trifluoroacetate salt]
6.30 to 7.00 | 6.30 to 7.00 | Cc1ccc(S(C)(=O)=O)cc1-c1cnc2c(N)nc(C(=O)NCCCn3cccn3)cn12 [Example 457, N-(3-(1H-pyrazol-1-yl)propyl)-8-amino-3-(2-methyl-5-(methylsulfonyl)phenyl)imidazo[1,2-a]pyrazine-6-carboxamide trifluoroacetate salt]
5.70 to 6.30 | 6.30 to 7.00 | COC(=O)N1CCCC(NC(=O)c2cn3c(-c4cc(S(C)(=O)=O)ccc4C)cnc3c(N)n2)C1 (stereo not drawn) [Example 461, Methyl 3-(8-amino-3-(2-methyl-5-(methylsulfonyl)phenyl)imidazo[1,2-a]pyrazine-6-carboxamido)piperidine-1-carboxylate trifluoroacetate salt]
5.70 to 6.30 | > 7.00 | Cc1ccc(S(C)(=O)=O)cc1-c1cnc2c(N)nc(C(=O)NC3CCCN(S(C)(=O)=O)C3)cn12 (stereo not drawn) [Example 462, 8-Amino-3-(2-methyl-5-(methylsulfonyl)phenyl)-N-(1-(methylsulfonyl)piperidin-3-yl)imidazo[1,2-a]pyrazine-6-carboxamide trifluoroacetate salt]
5.70 to 6.30 | > 7.00 | Cc1c(F)cc(S(=O)(=O)NCC(C)(C)O)cc1-c1cnc2c(N)nc(CO)nn12 [Example 470, 3-(4-Amino-2-(hydroxymethyl)imidazo[2,1-f][1,2,4]triazin-7-yl)-5-fluoro-N-(2-hydroxy-2-methylpropyl)-4-methylbenzenesulfonamide]
5.70 to 6.30 | > 7.00 | Cc1cnccc1-c1cn2c(-c3cc(S(C)(=O)=O)ccc3C)cnc2c(N)n1 [Example 473, 3-(2-Methyl-5-(methylsulfonyl)phenyl)-6-(3-methylpyridin-4-yl)imidazo[1,2-a]pyrazin-8-amine trifluoroacetate]
5.70 to 6.30 | 6.30 to 7.00 | COc1cccc(F)c1-c1cn2c(-c3cc(S(C)(=O)=O)ccc3C)cnc2c(N)n1 [Example 478, 6-(2-Fluoro-6-methoxyphenyl)-3-(2-methyl-5-(methylsulfonyl)phenyl)imidazo[1,2-a]pyrazin-8-amine trifluoroacetate]
6.30 to 7.00 | > 7.00 | Cc1ccc(S(C)(=O)=O)cc1-c1cnc2c(N)nc(-c3ccnn3C)cn12 [Example 479, 6-(1-Methyl-1H-pyrazol-5-yl)-3-(2-methyl-5-(methylsulfonyl)phenyl)imidazo[1,2-a]pyrazin-8-amine trifluoroacetate]
6.30 to 7.00 | > 7.00 | Cc1ccc(S(C)(=O)=O)cc1-c1cnc2c(N)nc(-c3ccc(C(=O)N(C)C)cc3F)cn12 [Example 480, 4-(8-Amino-3-(2-methyl-5-(methylsulfonyl)phenyl)imidazo[1,2-a]pyrazin-6-yl)-3-fluoro-N,N-dimethylbenzamide]
6.30 to 7.00 | > 7.00 | Cc1ccc(S(C)(=O)=O)cc1-c1cnc2c(N)nc(-c3ccc(CN4CCCC4)cc3F)cn12 [Example 487, 6-(2-Fluoro-4-(pyrrolidin-1-ylmethyl)phenyl)-3-(2-methyl-5-(methylsulfonyl)phenyl)imidazo[1,2-a]pyrazin-8-amine]
